Measured values reported in PMC4383003, “Transfer hydrogenation catalysis in cells as a new approach to anticancer drug design” (Nature Communications, 2015).

How the values were obtained:
9-ethylguanine = assay: Binding to model nucleobase 9-ethylguanine by 1H NMR; details: D2O, pH* 7.2 ± 0.1, 310 K
Description: Supplementary Table 4: Binding constants for formation of 9-EtG adducts of complexes 1-4 determined by 1H NMR. The experiments were performed in D2O, pH* 7.2 ± 0.1 and 310 K. Equilibrium was reached by the time the first 1H NMR spectrum was recorded (< 10 min). […]
DNA is believed to be the main target for [(bip)Ru(en)Cl]+ (8). Due to the structural similarity of the complexes 1-5 with complex 8, their binding to DNA was […]
Interaction with nucleobases
Initially, model nucleobases, 9-ethylguanine and 9-methyladenine were reacted with complexes 1-4 in D2O, 310 K and pH* 7.2 ± 0.1. The binding of the complexes to 9-EtG or 9-MeA was monitored by 1H-NMR spectroscopy. Peaks for the 9-EtG adducts were observed by the time the first spectrum was recorded (< 5 min after mixing), […]
equilibrium was reached rapidly. The binding constants for formation of 9-EtG adducts determined by NMR were between 60 and 106 mM-1 (Supplementary Table 4). These values are in the same range as that from the ethylenediamine complex [(bip)Ru(en)Cl]+ (K9-EtG= 60.3 mM-1),2 which also binds strongly to DNA.3, 4 The high resolution mass spectrum confirmed the formation of [(η6-arene)Ru(XEn)(9-EtG)]+ (Supplementary Table 5). The interaction of complexes 1-4 with 9-MeA was also investigated, but no reaction was detected by 1H-NMR.
It is well established that N7 of guanine is the preferred nucleotide binding site for many transition metals ions. 2-8 Furthermore, strong and selective binding to N7 of 9-EtG, has been observed for [(η6-arene)Ru(en)Cl]+.3, 4 A pH* titration of […]

CT-DNA = assay: Thermal stability (melting temperature) of CT-DNA by UV-Vis; format: binding, calf; details: for Tm: CT-DNA, 1:3 complex:base pairs, 2 mM cacodylate pH 7.4, 2 h 310 K; for ΔTm: versus free DNA
Description: Supplementary Table 6: Melting temperature (Tm) of CT-DNA in the presence of 8 or complex 2 (ratio 1:3, complex: base pairs-DNA). The reactions were carried out in cacodylate buffer (2 mM, pH 7.4), and samples incubated for 2 h at 310 K. […]
a variation in melting temperature between free DNA and DNA in the presence of the corresponding complex. * […] from free DNA using a T-test analysis. ** p < 0.01 from free DNA using a T-test analysis […]
Thermal stability of CT-DNA
The melting temperature of CT-DNA in the presence and absence of complex 2 [(p-cym)Ru(TsEn)Cl] was determined by UV-Vis spectroscopy (Supplementary Table 6). Higher melting temperatures indicate increased stabilization of the DNA, which is the effect produced by DNA-intercalators and often by direct metal coordination to […]
the nucleobases.11 Destabilization of DNA can result in a decrease of the melting […]
In the presence of complex 8, the melting temperature of CT-DNA increased In agreement with the literature, 12 by 14 K, in 2 mM NaCl, 2 mM cacodylate buffer.
This increase is due to Ru binding to DNA as well as intercalation. 12 However, upon increasing the chloride concentration by ca. 10x (20 mM NaCl) the melting temperature of CT-DNA in the presence of complex 8, increased only by 7 K. This effect has previously been reported and it is attributed to the partial inhibition of hydrolysis, and, therefore, inhibition of coordination to DNA. 12, 13
Experiments performed in the presence of complex 2, in 2 mM cacodylate buffer and […]
NaCl, no decrease of the melting temperature was observed. […]

[1] = test system: MRC5 human fetal lung fibroblasts; assay: In vitro growth inhibition assay (SRB), MRC5; format: cell-based
Description: A2780 human ovarian carcinoma and MRC5 human fetal lung fibroblasts were obtained from the European Collection of Cell Cultures. Both cell lines were grown in Roswell Park Memorial Institute medium (RPMI-1640) supplemented with 10% of fetal calf serum, 1% of 2 mM glutamine and 1% penicillin/streptomycin. All cells were grown as adherent monolayers at 310 K in a 5% CO2-humidified atmosphere and passaged at ca. 70–80% confluency.
The antiproliferative activity of complexes 1–8 was determined in A2780 ovarian cancer cells and MRC5 fibroblasts. Briefly, 96-well plates were used to seed 5,000 cells per well. The plates were left to pre-incubate with drug-free medium at 310 K for 48 h before adding different concentrations of the compounds to be tested. A drug exposure period of 24 h was allowed. After this, supernatants were removed by suction and each well was washed with PBS. […]
Supplementary Table 10: Antiproliferative activity of complex 2 in A2780 ovarian cancer cells and normal MRC5 human fetal lung fibroblasts, when co-administered with different concentrations of sodium formate (0 and 2 mM). All the experiments were performed as duplicates of triplicates in independent experiments and the error bars were calculated as the standard deviation from the mean. […]

[2] = test system: A2780 ovarian cancer cells; assay: Ruthenium distribution in cancer cells (cell fractionation, ICP-MS); format: cell-based, human
Description: Cell pellets were obtained as described above, and were fractionated using the Fraction PREP kit from BioVision according to the supplier’s instructions. Each sample was digested overnight in concentrated nitric acid (73%) and the amount of Ru taken up by the cells was determined by ICP–MS. These experiments were all carried out in triplicate and the s.d. were calculated.
Supplementary Table 9: Cellular distribution of complex 2 (as % Ru) in A2780 ovarian cancer cells when co-administered with different concentrations of sodium formate (0 and 2 mM). All the experiments were performed as duplicates of triplicates in independent experiments and the error bars were calculated as the standard deviation from the mean.
Formate Cytosol Membrane Cytoskeleton Nuclei

[3] = A2780, complex 2 4.5 μM, presence and absence of formate (2 mM)

## Cc1ccc(C(C)C)cc1.Cc1ccc(S(=O)(=O)[N-]CCN)cc1.[Cl-].[Ru+2] [Complex 2, [(p-cym)Ru(TsEn)Cl]]
9-ethylguanine
  Binding constant for formation of 9-EtG adducts: 104.9 ± 3.9 mM⁻¹
CT-DNA; 2 mM cacodylate buffer and 2 mM NaCl
  decrease in the melting temperature of CT-DNA: -269 °C
CT-DNA; 2 mM NaCl
  Tm: 47.2 ± 1.6 °C
  ΔTm: -2.4
CT-DNA; 20 mM NaCl
  Tm: 54.4 ± 0.7 °C
  ΔTm: -4.9
[1]; MRC5, formate 0 mM
  IC50: 48.5 ± 0.4 µM
[1]; ratio MRC5 fibroblasts / A2780, no formate
  selectivity factor: 3.6±0.2
[2]; A2780, complex 2 4.5 μM
  Ru in cytoskeletal fraction: little Ru
[2]; [3]
  Ru in cytosolic fraction: 51%
  Ru in membrane and organelle fraction: 38%
  Ru in nuclear fraction: 9%
[2]; A2780, formate 0 mM
  %Ru Cytoskeleton: 1.9 ± 0.5%
  %Ru Cytosol: 50.5 ± 2.4%
  %Ru Membrane: 41.6 ± 1.4%
  %Ru Nuclei: 6.0 ± 2.8%
[2]; A2780, formate 2 mM
  %Ru Cytoskeleton: 1.0 ± 0.8%
  %Ru Cytosol: 52.0 ± 3.0%
  %Ru Membrane: 35.7 ± 7.2%
  %Ru Nuclei: 11.3 ± 4.5%
